The source of these data is article PMC6359172, “Symmetrical Heterocyclic Cage Skeleton: Synthesis, Urease Inhibition Activity, Kinetic Mechanistic Insight, and Molecular Docking Analyses” (Molecules, 2019).

Where two headings read alike, the source gives them in different places.

The assay addresses T1, jack bean urease (Canavalia ensiformis, UniProt P07374).
T1 construct: purchased Sigma (St. Louis, MO, USA)
Description: biochemical. The protocol: The urease activity was determined by measuring the amount of ammonia produced with the indophenols method previously described. The reaction mixtures, comprising 20 µL of enzyme (jack bean urease, 5 U/mL) and 20 μL of test compounds in 50 μL buffer (100 mM urea, 0.01 M K2HPO4, 1 mM EDTA, and 0.01 M […], pH 8.2), were incubated for 30 min at 37 °C in a 96-well plate. Briefly, 50 μL each of phenol reagents (1%, w/v phenol and 0.005%, w/v sodium nitroprusside) and 50 μL of alkali reagent (0.5%, w/v NaOH and 0.1% active chloride NaOCl) were added to each well. The absorbance at 625 nm was measured after 10 min, using a microplate reader (OPTI Max, Tunable). All reactions were performed in triplicate. The urease inhibition activities were calculated according to the following formula:Urease inhibition activity (%) = (ODcontrol − ODsample × 100)/ODcontrol where ODcontrol and ODsample represents the optical densities in the absence and presence of the sample, respectively. Thiourea was used as the standard inhibitor for urease.

T1 sequence (P07374 whole entry, looked up): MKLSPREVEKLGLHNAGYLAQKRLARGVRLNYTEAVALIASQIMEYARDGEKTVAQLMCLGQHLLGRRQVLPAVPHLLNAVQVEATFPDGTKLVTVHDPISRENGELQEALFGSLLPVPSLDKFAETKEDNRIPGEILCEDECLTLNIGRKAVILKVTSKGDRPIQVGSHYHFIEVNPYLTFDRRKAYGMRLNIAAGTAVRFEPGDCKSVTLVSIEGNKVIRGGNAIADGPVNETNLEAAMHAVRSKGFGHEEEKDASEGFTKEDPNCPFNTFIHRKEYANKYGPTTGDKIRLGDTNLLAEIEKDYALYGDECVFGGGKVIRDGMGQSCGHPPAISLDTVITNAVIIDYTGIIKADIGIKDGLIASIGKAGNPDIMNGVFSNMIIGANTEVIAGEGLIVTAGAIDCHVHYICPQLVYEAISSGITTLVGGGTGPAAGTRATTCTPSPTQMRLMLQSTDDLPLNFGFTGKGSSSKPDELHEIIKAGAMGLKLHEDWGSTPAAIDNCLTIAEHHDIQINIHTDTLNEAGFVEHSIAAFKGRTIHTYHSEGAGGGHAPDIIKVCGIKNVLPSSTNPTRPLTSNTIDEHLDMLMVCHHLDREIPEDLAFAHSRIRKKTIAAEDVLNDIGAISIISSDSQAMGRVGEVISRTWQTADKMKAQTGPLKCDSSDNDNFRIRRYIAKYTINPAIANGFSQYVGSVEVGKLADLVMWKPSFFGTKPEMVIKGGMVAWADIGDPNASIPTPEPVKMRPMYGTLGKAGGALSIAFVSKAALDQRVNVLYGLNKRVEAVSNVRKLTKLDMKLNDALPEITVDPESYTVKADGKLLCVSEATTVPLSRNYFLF

`COc1ccc(-c2n[nH]c(=O)n2/N=C/c2cccc(/C=N/n3c(-c4ccc(OC)cc4)n[nH]c3=O)n2)cc1` [Compound 3] returned an IC50 of 18.9 ± 1.81 µM.
On the same count and under the same terms, then `COc1ccc(-c2n[nH]c(=S)n2/N=C/c2cccc(/C=N/n3c(-c4ccc(OC)cc4)n[nH]c3=S)n2)cc1` [Compound 4], with 29.3 ± 3.32 µM.
For `NC(N)=S` [Thio-Urea, Thiourea, reference compound], the IC50 (jack bean urease 5 U/mL, 100 mM urea, pH 8.2, 30 min 37 °C, read-out: Urease Inhibition IC50) was found to be 20.7 ± 0.45 µM.
